Experimental data taken from the supplement of paper PMC10307832.

How the values were obtained:
Test in all cases: relative viability (nuclei count vs DMSO), 5 days (fraction); higher = more cells survive
A-427 = test system: A-427
Summary of the method: (§1)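 Lung cancer cell lines, seeded in 1536-well plates, were treated the following day by pin tool with a single drug or with five library-drug doses (not always all listed) in √10 steps on top of a fixed anchor-drug dose. Cells were fixed and nuclei stained in one step after 5 days, and nuclei were counted. Relative viability is the nuclei count for treated wells divided by that for vehicle wells, reported as medians of duplicate plates.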

COR-L 105 = test system: COR-L 105
Summary of the method: as §1

H3255 = test system: H3255
Summary of the method: as §1

HCC-44 = test system: HCC-44
Summary of the method: as §1

HCC-827 = test system: HCC-827
Summary of the method: as §1

LOU-NH91 = test system: LOU-NH91
Summary of the method: as §1

LXF-289 = test system: LXF-289
Summary of the method: as §1

NCI-H1792 = test system: NCI-H1792
Summary of the method: as §1

NCI-H1793 = test system: NCI-H1793
Summary of the method: as §1

NCI-H1915 = test system: NCI-H1915
Summary of the method: as §1

NCI-H1944 = test system: NCI-H1944
Summary of the method: as §1

NCI-H1975 = test system: NCI-H1975
Summary of the method: as §1

NCI-H1993 = test system: NCI-H1993
Summary of the method: as §1

NCI-H2023 = test system: NCI-H2023
Summary of the method: as §1

NCI-H2087 = test system: NCI-H2087
Summary of the method: as §1

NCI-H2170 = test system: NCI-H2170
Summary of the method: as §1

NCI-H358 = test system: NCI-H358
Summary of the method: as §1

NCI-H520 = test system: NCI-H520
Summary of the method: as §1

SK-MES-1 = test system: SK-MES-1
Summary of the method: as §1

SW 1573 = test system: SW 1573
Summary of the method: as §1

## CCNC(=O)c1noc(-c2cc(C(C)C)c(O)cc2O)c1-c1ccc(CN2CCOCC2)cc1 [Luminespib] + CS(=O)(=O)CCNCc1ccc(-c2ccc3ncnc(Nc4ccc(OCc5cccc(F)c5)c(Cl)c4)c3c2)o1 [Lapatinib] (partner 2 µM)
A-427; first compound 0.002 µM
  relative viability: 1.08
A-427; first compound 0.006325 µM
  relative viability: 1.02
A-427; first compound 0.02 µM
  relative viability: 0.771
A-427; first compound 0.06325 µM
  relative viability: 1.04
A-427; first compound 0.2 µM
  relative viability: 0.975
COR-L 105; first compound 0.002 µM
  relative viability: 0.363
COR-L 105; first compound 0.006325 µM
  relative viability: 0.354
COR-L 105; first compound 0.02 µM
  relative viability: 0.283
COR-L 105; first compound 0.06325 µM
  relative viability: 0.266
COR-L 105; first compound 0.2 µM
  relative viability: 0.302
H3255; first compound 0.002 µM
  relative viability: 0.245
H3255; first compound 0.006325 µM
  relative viability: 0.305
H3255; first compound 0.02 µM
  relative viability: 0.234
H3255; first compound 0.06325 µM
  relative viability: 0.233
H3255; first compound 0.2 µM
  relative viability: 0.25
HCC-44; first compound 0.002 µM
  relative viability: 0.975
HCC-44; first compound 0.006325 µM
  relative viability: 1.08
HCC-44; first compound 0.02 µM
  relative viability: 1.18
HCC-44; first compound 0.06325 µM
  relative viability: 0.161
HCC-44; first compound 0.2 µM
  relative viability: 0.159
HCC-827; first compound 0.002 µM
  relative viability: 0.184
HCC-827; first compound 0.006325 µM
  relative viability: 0.184
HCC-827; first compound 0.02 µM
  relative viability: 0.172
HCC-827; first compound 0.06325 µM
  relative viability: 0.235
HCC-827; first compound 0.2 µM
  relative viability: 0.185
LOU-NH91; first compound 0.002 µM
  relative viability: 0.791
LOU-NH91; first compound 0.006325 µM
  relative viability: 0.833
LOU-NH91; first compound 0.02 µM
  relative viability: 0.588
LOU-NH91; first compound 0.06325 µM
  relative viability: 0.338
LOU-NH91; first compound 0.2 µM
  relative viability: 0.342
LXF-289; first compound 0.002 µM
  relative viability: 0.905
LXF-289; first compound 0.006325 µM
  relative viability: 0.877
LXF-289; first compound 0.02 µM
  relative viability: 1.02
LXF-289; first compound 0.06325 µM
  relative viability: 0.554
LXF-289; first compound 0.2 µM
  relative viability: 0.115
NCI-H1792; first compound 0.002 µM
  relative viability: 0.855
NCI-H1792; first compound 0.006325 µM
  relative viability: 0.778
NCI-H1792; first compound 0.02 µM
  relative viability: 0.717
NCI-H1792; first compound 0.06325 µM
  relative viability: 0.474
NCI-H1792; first compound 0.2 µM
  relative viability: 0.587
NCI-H1793; first compound 0.002 µM
  relative viability: 0.697
NCI-H1793; first compound 0.006325 µM
  relative viability: 0.832
NCI-H1793; first compound 0.02 µM
  relative viability: 0.223
NCI-H1793; first compound 0.06325 µM
  relative viability: 0.167
NCI-H1793; first compound 0.2 µM
  relative viability: 0.177
NCI-H1915; first compound 0.002 µM
  relative viability: 0.943
NCI-H1915; first compound 0.006325 µM
  relative viability: 0.957
NCI-H1915; first compound 0.02 µM
  relative viability: 0.932
NCI-H1915; first compound 0.06325 µM
  relative viability: 0.99
NCI-H1915; first compound 0.2 µM
  relative viability: 0.284
NCI-H1944; first compound 0.002 µM
  relative viability: 0.869
NCI-H1944; first compound 0.006325 µM
  relative viability: 0.724
NCI-H1944; first compound 0.02 µM
  relative viability: 0.445
NCI-H1944; first compound 0.06325 µM
  relative viability: 0.41
NCI-H1944; first compound 0.2 µM
  relative viability: 0.407
NCI-H1975; first compound 0.002 µM
  relative viability: 0.951
NCI-H1975; first compound 0.006325 µM
  relative viability: 0.739
NCI-H1975; first compound 0.02 µM
  relative viability: 0.291
NCI-H1975; first compound 0.06325 µM
  relative viability: 0.126
NCI-H1975; first compound 0.2 µM
  relative viability: 0.113
NCI-H1993; first compound 0.002 µM
  relative viability: 0.874
NCI-H1993; first compound 0.006325 µM
  relative viability: 0.864
NCI-H1993; first compound 0.02 µM
  relative viability: 0.654
NCI-H1993; first compound 0.06325 µM
  relative viability: 0.491
NCI-H1993; first compound 0.2 µM
  relative viability: 0.418
NCI-H2023; first compound 0.002 µM
  relative viability: 0.866
NCI-H2023; first compound 0.006325 µM
  relative viability: 0.787
NCI-H2023; first compound 0.02 µM
  relative viability: 0.124
NCI-H2023; first compound 0.06325 µM
  relative viability: 0.0702
NCI-H2023; first compound 0.2 µM
  relative viability: 0.0724
NCI-H2087; first compound 0.002 µM
  relative viability: 1.11
NCI-H2087; first compound 0.006325 µM
  relative viability: 0.954
NCI-H2087; first compound 0.02 µM
  relative viability: 0.726
NCI-H2087; first compound 0.06325 µM
  relative viability: 0.202
NCI-H2087; first compound 0.2 µM
  relative viability: 0.174
NCI-H2170; first compound 0.002 µM
  relative viability: 0.254
NCI-H2170; first compound 0.006325 µM
  relative viability: 0.28
NCI-H2170; first compound 0.02 µM
  relative viability: 0.248
NCI-H2170; first compound 0.06325 µM
  relative viability: 0.291
NCI-H2170; first compound 0.2 µM
  relative viability: 0.203
NCI-H358; first compound 0.002 µM
  relative viability: 0.503
NCI-H358; first compound 0.006325 µM
  relative viability: 0.446
NCI-H358; first compound 0.02 µM
  relative viability: 0.354
NCI-H358; first compound 0.06325 µM
  relative viability: 0.132
NCI-H358; first compound 0.2 µM
  relative viability: 0.14
NCI-H520; first compound 0.002 µM
  relative viability: 0.848
NCI-H520; first compound 0.006325 µM
  relative viability: 0.792
NCI-H520; first compound 0.02 µM
  relative viability: 0.353
NCI-H520; first compound 0.06325 µM
  relative viability: 0.11
NCI-H520; first compound 0.2 µM
  relative viability: 0.138
SK-MES-1; first compound 0.002 µM
  relative viability: 0.461
SK-MES-1; first compound 0.006325 µM
  relative viability: 0.459
SK-MES-1; first compound 0.02 µM
  relative viability: 0.407
SK-MES-1; first compound 0.06325 µM
  relative viability: 0.265
SK-MES-1; first compound 0.2 µM
  relative viability: 0.159
SW 1573; first compound 0.002 µM
  relative viability: 1.2
SW 1573; first compound 0.006325 µM
  relative viability: 1.14
SW 1573; first compound 0.02 µM
  relative viability: 0.711
SW 1573; first compound 0.06325 µM
  relative viability: 0.439
SW 1573; first compound 0.2 µM
  relative viability: 0.127
